Results taken from ChEMBL document CHEMBL5113479, “Pyrido[2,3-d]pyrimidine-2,4(1H,3H)-dione derivatives as RAF-MEK-ERK pathway signaling pathway blockers: Synthesis, cytotoxic activity, mechanistic investigation and structure-activity relationships” (Eur J Med Chem, 2022).

test system: not listed separately; test: Cytotoxicity against human C-28/I2 cells measured after 72 hrs by CCK8 assay; assay type: toxicity, cell-based; settings: not given

Q: With `Cn1c(=O)c2c(NCC(=O)Nc3cccc(Cl)c3)cc(N3CCCC3)nc2n(C)c1=O` as the molecule, how does the CC50 at 72 h read?
A: > 100 µM

Q: Which CC50 at 72 h does the source give for `Cn1c(=O)c2c(NCC(=O)Nc3ccccc3)cc(N3CCCC3)nc2n(C)c1=O` here?
A: > 100 µM

Q: For `CCn1c(=O)n(C)c(=O)c2c(Nc3ccccc3C(=O)OC)cc(=O)n(C)c21`, which CC50 at 72 h is on record?
A: > 100 µM

Q: Which CC50 at 72 h does the source give for `Cn1c(=O)c2c(NC3CC3)c(Cc3ccccc3)c(=O)n(C)c2n(C)c1=O` here?
A: > 100 µM

Q: For `CN(C)c1cc(NCC(=O)Nc2cccc(C(F)(F)F)c2)c2c(=O)n(C)c(=O)n(C)c2n1`, which CC50 at 72 h is on record?
A: > 100 µM

Q: With `Cn1c(=O)c2c(NCC(=O)Nc3ccc(OC(F)(F)F)cc3)cc(N3CCCC3)nc2n(C)c1=O` as the molecule, how does the CC50 at 72 h read?
A: > 100 µM

Q: With `CN(C)c1cc(NCC(=O)Nc2ccc(OC(F)(F)F)cc2)c2c(=O)n(C)c(=O)n(C)c2n1` as the molecule, how does the CC50 at 72 h read?
A: > 25 µM

Q: With `Cn1c(=O)c2c(Nc3ccccn3)cc(=O)n(C)c2n(C)c1=O` as the molecule, how does the CC50 at 72 h read?
A: > 100 µM

Q: For `Cn1c(=O)c2c(NCC(=O)Nc3ccc(C(F)(F)F)cc3)cc(N3CCOCC3)nc2n(C)c1=O`, which CC50 at 72 h is on record?
A: > 100 µM

Q: With `CC(C)Nc1c(Cc2ccccc2)c(=O)n(C)c2c1c(=O)n(C)c(=O)n2C` as the molecule, how does the CC50 at 72 h read?
A: > 100 µM

Q: With `CN(C)c1cc(NCC(=O)Nc2ccc(Cl)cc2)c2c(=O)n(C)c(=O)n(C)c2n1` as the molecule, how does the CC50 at 72 h read?
A: > 100 µM

Q: With `CN1CCN(c2cc(NCC(=O)Nc3cccc(C(F)(F)F)c3)c3c(=O)n(C)c(=O)n(C)c3n2)CC1` as the molecule, how does the CC50 at 72 h read?
A: > 100 µM

Q: Which CC50 at 72 h does the source give for `Cc1ccccc1NC(=O)CNc1cc(N(C)C)nc2c1c(=O)n(C)c(=O)n2C` here?
A: > 100 µM

Q: With `CN(C)c1cc(NCC(=O)Nc2cccc(Cl)c2)c2c(=O)n(C)c(=O)n(C)c2n1` as the molecule, how does the CC50 at 72 h read?
A: > 100 µM

Q: Which CC50 at 72 h does the source give for `CN1CCN(c2cc(NCC(=O)Nc3ccc(C(F)(F)F)cc3)c3c(=O)n(C)c(=O)n(C)c3n2)CC1` here?
A: > 50 µM

Q: For `Cn1c(=O)c2c(Nc3ccc(OC(F)(F)F)cc3)cc(=O)n(C)c2n(C)c1=O`, which CC50 at 72 h is on record?
A: > 100 µM

Q: Which CC50 at 72 h does the source give for `Cn1c(=O)c2c(NCC(=O)Nc3ccc(F)cc3)cc(N3CCOCC3)nc2n(C)c1=O` here?
A: > 100 µM

Q: With `Cc1ccccc1NC(=O)CNc1cc(=O)n(C)c2c1c(=O)n(C)c(=O)n2C` as the molecule, how does the CC50 at 72 h read?
A: > 100 µM

test system: SK-MEL-2; test: Antiproliferative activity against human SK-MEL-2 cells assessed as inhibition of cell growth measured after 72 hrs by CCK8 assay; assay type: functional, cell-based; settings: SK-MEL-2, 72 h

Q: For `Cn1c(=O)c2c(NCC(=O)Nc3cccc(Cl)c3)cc(N3CCCC3)nc2n(C)c1=O`, which IC50 is on record?
A: > 50 µM

Q: For `CN(C)c1cc(NCC(=O)Nc2cccc(C(F)(F)F)c2)c2c(=O)n(C)c(=O)n(C)c2n1`, which IC50 is on record?
A: > 50 µM

Q: With `CN(C)c1cc(NCC(=O)Nc2ccc(OC(F)(F)F)cc2)c2c(=O)n(C)c(=O)n(C)c2n1` as the molecule, how does the IC50 read?
A: > 50 µM

Q: For `CN1CCN(c2cc(NCC(=O)Nc3cccc(C(F)(F)F)c3)c3c(=O)n(C)c(=O)n(C)c3n2)CC1`, which IC50 is on record?
A: > 50 µM

Q: With `CN(C)c1cc(NCC(=O)Nc2cccc(Cl)c2)c2c(=O)n(C)c(=O)n(C)c2n1` as the molecule, how does the IC50 read?
A: 41.2 µM

Q: With `CN1CCN(c2cc(NCC(=O)Nc3ccc(C(F)(F)F)cc3)c3c(=O)n(C)c(=O)n(C)c3n2)CC1` as the molecule, how does the IC50 read?
A: 46.4 µM

test system: MCF7; test: Antiproliferative activity against human MCF7 cells assessed as inhibition of cell growth measured after 72 hrs by CCK8 assay; assay type: functional, cell-based; settings: MCF7, 72 h

Q: For `Cn1c(=O)c2c(NCC(=O)Nc3ccccc3)cc(N3CCCC3)nc2n(C)c1=O`, which IC50 is on record?
A: 42.3 µM

Q: With `CCn1c(=O)n(C)c(=O)c2c(Nc3ccccc3C(=O)OC)cc(=O)n(C)c21` as the molecule, how does the IC50 read?
A: > 50 µM

Q: For `Cn1c(=O)c2c(NC3CC3)c(Cc3ccccc3)c(=O)n(C)c2n(C)c1=O`, which IC50 is on record?
A: 35.9 µM

Q: Which IC50 does the source give for `Cn1c(=O)c2c(NCC(=O)Nc3ccc(OC(F)(F)F)cc3)cc(N3CCCC3)nc2n(C)c1=O` here?
A: 36.2 µM

Q: Which IC50 does the source give for `Cn1c(=O)c2c(Nc3ccccn3)cc(=O)n(C)c2n(C)c1=O` here?
A: 10.2 µM

Q: With `Cn1c(=O)c2c(NCC(=O)Nc3ccc(C(F)(F)F)cc3)cc(N3CCOCC3)nc2n(C)c1=O` as the molecule, how does the IC50 read?
A: 46.6 µM

Q: For `CC(C)Nc1c(Cc2ccccc2)c(=O)n(C)c2c1c(=O)n(C)c(=O)n2C`, which IC50 is on record?
A: 9.98 µM

Q: With `CN(C)c1cc(NCC(=O)Nc2ccc(Cl)cc2)c2c(=O)n(C)c(=O)n(C)c2n1` as the molecule, how does the IC50 read?
A: 49.2 µM

Q: Which IC50 does the source give for `Cc1ccccc1NC(=O)CNc1cc(N(C)C)nc2c1c(=O)n(C)c(=O)n2C` here?
A: 49.9 µM

Q: With `CN1CCN(c2cc(NCC(=O)Nc3ccc(C(F)(F)F)cc3)c3c(=O)n(C)c(=O)n(C)c3n2)CC1` as the molecule, how does the IC50 read?
A: > 50 µM

Q: For `Cn1c(=O)c2c(Nc3ccc(OC(F)(F)F)cc3)cc(=O)n(C)c2n(C)c1=O`, which IC50 is on record?
A: 49.8 µM

Q: For `Cn1c(=O)c2c(NCC(=O)Nc3ccc(F)cc3)cc(N3CCOCC3)nc2n(C)c1=O`, which IC50 is on record?
A: 45.4 µM

Q: Which IC50 does the source give for `Cc1ccccc1NC(=O)CNc1cc(=O)n(C)c2c1c(=O)n(C)c(=O)n2C` here?
A: 17.2 µM

test system: A-375; test: Antiproliferative activity against human A-375 cells assessed as inhibition of cell growth measured after 72 hrs by CCK8 assay; assay type: functional, cell-based; settings: A-375, 72 h

Q: For `Cn1c(=O)c2c(NCC(=O)Nc3cccc(Cl)c3)cc(N3CCCC3)nc2n(C)c1=O`, which IC50 is on record?
A: 48.6 µM

Q: For `Cn1c(=O)c2c(NCC(=O)Nc3ccccc3)cc(N3CCCC3)nc2n(C)c1=O`, which IC50 is on record?
A: > 50 µM

Q: With `CCn1c(=O)n(C)c(=O)c2c(Nc3ccccc3C(=O)OC)cc(=O)n(C)c21` as the molecule, how does the IC50 read?
A: > 50 µM

Q: With `Cn1c(=O)c2c(NC3CC3)c(Cc3ccccc3)c(=O)n(C)c2n(C)c1=O` as the molecule, how does the IC50 read?
A: 45.9 µM

Q: For `CN(C)c1cc(NCC(=O)Nc2cccc(C(F)(F)F)c2)c2c(=O)n(C)c(=O)n(C)c2n1`, which IC50 is on record?
A: 31.9 µM

Q: For `Cn1c(=O)c2c(NCC(=O)Nc3ccc(OC(F)(F)F)cc3)cc(N3CCCC3)nc2n(C)c1=O`, which IC50 is on record?
A: > 50 µM

Q: For `CN(C)c1cc(NCC(=O)Nc2ccc(OC(F)(F)F)cc2)c2c(=O)n(C)c(=O)n(C)c2n1`, which IC50 is on record?
A: 39.2 µM

Q: For `Cn1c(=O)c2c(Nc3ccccn3)cc(=O)n(C)c2n(C)c1=O`, which IC50 is on record?
A: 25 µM

Q: For `Cn1c(=O)c2c(NCC(=O)Nc3ccc(C(F)(F)F)cc3)cc(N3CCOCC3)nc2n(C)c1=O`, which IC50 is on record?
A: > 50 µM

Q: Which IC50 does the source give for `CC(C)Nc1c(Cc2ccccc2)c(=O)n(C)c2c1c(=O)n(C)c(=O)n2C` here?
A: 24.5 µM

Q: For `CN(C)c1cc(NCC(=O)Nc2ccc(Cl)cc2)c2c(=O)n(C)c(=O)n(C)c2n1`, which IC50 is on record?
A: > 50 µM

Q: For `CN1CCN(c2cc(NCC(=O)Nc3cccc(C(F)(F)F)c3)c3c(=O)n(C)c(=O)n(C)c3n2)CC1`, which IC50 is on record?
A: 45 µM

Q: With `Cc1ccccc1NC(=O)CNc1cc(N(C)C)nc2c1c(=O)n(C)c(=O)n2C` as the molecule, how does the IC50 read?
A: > 50 µM

Q: With `CN(C)c1cc(NCC(=O)Nc2cccc(Cl)c2)c2c(=O)n(C)c(=O)n(C)c2n1` as the molecule, how does the IC50 read?
A: > 50 µM

Q: Which IC50 does the source give for `CN1CCN(c2cc(NCC(=O)Nc3ccc(C(F)(F)F)cc3)c3c(=O)n(C)c(=O)n(C)c3n2)CC1` here?
A: > 50 µM

Q: With `Cn1c(=O)c2c(Nc3ccc(OC(F)(F)F)cc3)cc(=O)n(C)c2n(C)c1=O` as the molecule, how does the IC50 read?
A: 40.7 µM

Q: Which IC50 does the source give for `Cn1c(=O)c2c(NCC(=O)Nc3ccc(F)cc3)cc(N3CCOCC3)nc2n(C)c1=O` here?
A: > 50 µM

Q: With `Cc1ccccc1NC(=O)CNc1cc(=O)n(C)c2c1c(=O)n(C)c(=O)n2C` as the molecule, how does the IC50 read?
A: 13 µM
